According to patent US4185116A, “L- and DL- Phenylglycines to treat diseases or conditions attributable to reduced carbohydrate metabolism” (priority 1976, dated 1980):
Where a name gives a salt, the structure may show the parent alone.

Experiments:
[1] = tested on: pyruvate dehydrogenase enzyme; assay: Proportion of active pyruvate dehydrogenase (PDHa/PDHt) in hearts of fat-fed rats after treatment in vivo; parameters: species or system rat; conditions: heart; for PDHa/PDHt Ratio, Compound: 0.6 millimoles/kg.
Method: The total amount of the enzyme present (PDHt) and the amount which is present in the active form (PDHa) are assessed by a method similar to that described by Taylor et al., Jour. […] The fat-feeding process is found to depress the ratio PDHa/PDHt from a normal value of about 0.7 to a value in the range from 0.05 to 0.2. Treatment of fat-fed rats with L(+)-2-(4-hydroxyphenyl)glycine, either parenterally or orally, increases this ratio in a dose-dependent manner, the threshold doses for this effect being 0.05 millimole/kg. by intravenous injection and in the range 0.1 to 0.2 millimole/kg. by subcutaneous injection or by oral administration. The ratio is increased to a value in the range 0.8-1.0 (i.e., above that for rats on normal diet) by doses of 0.6 millimole/kg. and above.
The increase in the PDHa/PDHt ratio effected by other compounds of formula (I) at a dose level of 0.6 millimoles/kg. is shown in the following Table: […]

[2] = tested on: heart of anesthetized beagle dogs; assay: Myocardial blood flow and metabolism in fasted, closed-chest, anesthetized, electrically paced beagle dogs; type: in vivo, dog
Method: The ability of compounds of formula (I) to reduce oxygen demand and affect the relative utilization of carbohydrate and lipid metabolites in the heart has been assessed by measuring the effect of the compounds on myocardial blood flow and metabolism in fasted, closed-chest, anesthetized beagle dogs, with cardiac catherization to enable simultaneous sampling of coronary sinus and arterial blood to be carried out. Coronary sinus blood flow is measured by the hydrogen gas clearance technique described by Aukland et al., Circulation Res., 14, 164 (1964). The heart is paced electrically at 155 beats/min. and recordings of hemodynamic parameters (blood pressure, left ventricular pressure and the first derivative of the latter) are made continuously. Control measurements of coronary blood flow are made and samples of blood taken at 40 minute intervals, both in an untreated animal and in the same animal dosed with an infusion of isoprenaline ([…].), which both stimulates cardiac contraction and increases plasma free fatty acid levels. The compound of formula (I) is then administered intravenously and measurements are made and samples taken again, 40 minutes and 90 minutes later. The blood samples from the artery and coronary sinus are analyzed for oxyhemoglobin, pyruvate and free fatty acid (FFA) content, differences between those of the arterial and coronary sinus blood, when multiplied by coronary blood flow, being a measure of oxygen consumption, pyruvate uptake and FFA uptake by the myocardium respectively.

[3] = tested on: pyruvate oxidation by diaphragm tissue from fat-fed rats; assay: Pyruvate oxidation by diaphragm tissue from fat-fed rats (14C-pyruvate into CO2, in vitro); type: cell-based, rat; conditions: for activation at 500 µM: concentration of 0.5 mM, read-out: % Stimulation (of pyruvate oxidation)
Method: The compounds of formula (I) were tested for their ability to increase pyruvate oxidation as follows:
Diaphragm tissue is obtained from rats fed on a high fat diet similar to "Diet B" described by Zaragoza and Felber, Horm, Metab. Res., 2, 323 (1970). Pyruvate oxidation by such tissue is assessed by measurement of the rate of incorporation of carbon-14 from carbon-14-labelled pyruvate into carbon dioxide in vitro, as described by Bringolf, Eur. Jour. Biochem., 26, 360 (1972). The rate of pyruvate oxidation is depressed by 50-75% compared with that by diaphragm tissue from rats fed on a normal diet. […] The threshold concentration for such stimulation is about 0.25 millimolar and maximum stimulation of 170% is achieved at concentrations of 4 millimolar and above.

[4] = tested on: glucose oxidation by isolated hearts from starved rats; assay: Glucose oxidation by isolated perfused hearts from starved rats (14C-glucose into CO2); type: cell-based; conditions: isolated starved-rat heart
Method: The rate of glucose oxidation by isolated hearts from starved rats is measured in a recirculating oxygenated perfusion system, by measuring the rate of incorporation of carbon-14 from carbon-14-labelled glucose into carbon dioxide using a method similar to those described by Morgan et al., Jour. […] The perfusate contains glucose, palmitate, insulin and bovine serum albumen.

[5] = tested on: rats in which diabetes has been induced by treatment with streptozotocin; assay: Blood glucose levels in streptozotocin-diabetic rats; type: in vivo, rat
Method: The ability of compounds of formula (I) to decrease blood glucose levels has been assessed by measuring their effect on blood glucose levels in rats in which diabetes has been induced by treatment with streptozotocin (85 mg/kg.). Four days after such treatment, a number of rats are given 1 millimole/kg of the compound by intraperitoneal injection and a similar number are given placebo. The doses are repeated after a further 24 hours and 48 hours. Blood samples are taken from a tail vein immediately before each dosage (which is 2 hours after removal of the animals from food) and 1, 2 and 3 hours after the third dose.

[6] = 0.02 to 0.1 millimole/kg. intravenously

CC(C)CCOC(=O)[C@@H](N)c1ccc(O)cc1 [3-Methylbutyl L(+)-2-(4-hydroxyphenyl)glycinate]
PDHa/PDHt Ratio, Compound ([1]; s.c. (subcutaneous)): 0.51
effects on myocardial pyruvate uptake, blood flow, oxygen consumption and FFA uptake (predicted, 'will be found') [2]: effects similar to L(+)-2-(4-hydroxyphenyl)glycine
activation at 500 µM ([3]; Rattus norvegicus): 32%

COc1ccc([C@H](N)C(=O)O)cc1 [L(+)-2-(4-methoxyphenyl)glycine]
activation at 500 µM ([3]; Rattus norvegicus): 79%
effect on rate of glucose oxidation (predicted, 'will be') [4]: significantly increased

CC(C)OC(=O)[C@@H](N)c1ccc(O)cc1 [Isopropyl L(+)-2-(4-hydroxyphenyl)glycinate]
activation at 500 µM ([3]; Rattus norvegicus): 34%

N[C@H](C(=O)O)c1ccc(O)cc1 [L(+)-2-(4-hydroxyphenyl)glycine]
PDHa/PDHt ratio ([1]; doses of 0.6 millimole/kg. and above, fat-fed untreated 0.05 to 0.2, normal diet about 0.7): 0.8-1.0
threshold dose for increase of PDHa/PDHt ratio ([1]; intravenous injection): 0.05 millimole/kg.
effect on hemodynamic parameters (blood pressure, left ventricular pressure and its first derivative) [2, 6]: no effect
effect on myocardial FFA uptake [2, 6]: generally decreased
increase of myocardial blood flow [2, 6]: up to 150%
period of increased myocardial pyruvate uptake after dosing [2, 6]: at least 90 minutes
decrease of myocardial oxygen consumption ([2]; 0.02 to 0.1 millimole/kg. intravenously, in the presence of isoprenaline): about 20%
increase of myocardial pyruvate uptake ([2]; 0.02 to 0.1 millimole/kg. intravenously, presence and absence of isoprenaline): at least 2 fold
Emax ([3]; Rattus norvegicus, at concentrations of 4 millimolar and above, read-out: maximum stimulation of pyruvate oxidation): 170%
minimal effective concentration ([3]; Rattus norvegicus, in vitro, read-out: threshold concentration for stimulation of pyruvate oxidation): ~250 µM
rate of glucose oxidation ([4]; 2 millimolar in perfusate, normal rate 1.27+ 0.32, mean of 9 observations): 4.77 µmol/h
blood glucose level after 2 days of treatment (immediately before the third dose) ([5]; 1 millimole/kg intraperitoneal daily, declined from 378± 8, placebo 383± 10, averages for 8 animals): 356± 4 mg/100 ml.
blood glucose level 2 hours after the third dose (minimum value) ([5]; 1 millimole/kg intraperitoneal, placebo 385± 7, averages for 8 animals): 313± 7 mg/100 ml.

NC(=O)[C@@H](N)c1ccc(O)cc1 [L(+)-2-(4-hydroxyphenyl)glycinamide]
PDHa/PDHt Ratio, Compound ([1]; p.o. (oral)): 0.91
PDHa/PDHt Ratio, Compound ([1]; s.c. (subcutaneous)): 0.93
effects on myocardial pyruvate uptake, blood flow, oxygen consumption and FFA uptake (predicted, 'will be found') [2]: effects similar to L(+)-2-(4-hydroxyphenyl)glycine
activation at 500 µM ([3]; Rattus norvegicus): 51%
effect on rate of glucose oxidation (predicted, 'will be') [4]: significantly increased

CCCOC(=O)[C@@H](N)c1ccc(O)cc1.Cl [n-propyl L(+)-2-(4-hydroxyphenyl)glycinate hydrochloride]
effect on rate of glucose oxidation (predicted, 'will be') [4]: significantly increased

COc1ccc([C@H](N)C(=O)O)cc1 [L(+)-2-(4-methoxyphenyl)glycine, calcium salt]
effects on myocardial pyruvate uptake, blood flow, oxygen consumption and FFA uptake (predicted, 'will be found') [2]: effects similar to L(+)-2-(4-hydroxyphenyl)glycine

COC(=O)[C@@H](N)c1ccc(OC)cc1 [methyl L(+)-2-(4-methoxyphenyl)glycinate gluconate]
effect on PDHa/PDHt ratio (predicted, 'will be') [1]: significantly increased

Br.COc1ccc([C@H](N)C(=O)OCCC(C)C)cc1 [3-methylbutyl L(+)-2-(4-methoxyphenyl)glycinate hydrobromide]
effect on PDHa/PDHt ratio (predicted, 'will be') [1]: significantly increased

COc1ccc([C@H](N)C(=O)[O-])cc1.[K+] [L(+)-2-(4-methoxyphenyl)glycine, potassium salt]
effect on PDHa/PDHt ratio (predicted, 'will be') [1]: significantly increased

COC(=O)[C@@H](N)c1ccc(O)cc1.Cl [methyl L(+)-2-(4-hydroxyphenyl)glycinate hydrochloride]
effects on myocardial pyruvate uptake, blood flow, oxygen consumption and FFA uptake (predicted, 'will be found') [2]: effects similar to L(+)-2-(4-hydroxyphenyl)glycine

CCOC(=O)[C@@H](N)c1ccc(OC)cc1 [ethyl L(+)-2-(4-methoxyphenyl)glycinate]
effect on pyruvate oxidation (predicted, 'will be found') [3]: stimulate pyruvate oxidation

CCCCOC(=O)[C@@H](N)c1ccc(OC)cc1 [n-butyl L(+)-2-(4-methoxyphenyl)glycinate]
effect on pyruvate oxidation (predicted, 'will be found') [3]: stimulate pyruvate oxidation

N[C@@H](C(=O)O)c1ccc(O)cc1 [D(-)-2-(4-hydroxyphenyl)glycine, reference compound]
effect on PDHa/PDHt ratio ([1]; dose levels up to 1.2 millimole/kg.): very little effect
effect on pyruvate oxidation ([3]; concentrations up to 4 mM): no significant effect
effect on rate of glucose oxidation ([4]; 2 millimolar in perfusate): no significant effect

COC(=O)[C@@H](N)c1ccc(O)cc1 [Methyl L(+)-2-(4-hydroxyphenyl)glycinate]
PDHa/PDHt Ratio, Compound ([1]; p.o. (oral)): 0.42
PDHa/PDHt Ratio, Compound ([1]; s.c. (subcutaneous)): 0.69
activation at 500 µM ([3]; Rattus norvegicus): 89%

NC(C(=O)[O-])c1ccc(O)cc1.[Na+] (racemic) [DL-2-(4-hydroxyphenyl)glycine, sodium salt]
effect on rate of glucose oxidation (predicted, 'will be') [4]: significantly increased

NC(C(=O)O)c1ccc(O)cc1 (racemic) [DL (racemic)-2-(4-hydroxyphenyl)glycine]
effect on PDHa/PDHt ratio relative to the L(+)-isomer ([1]; same dose levels): only half, or less than half, the effect of the L(+)-isomer
effect on pyruvate oxidation relative to the L(+)-isomer [3]: approximately half that of the L(+)-isomer

COc1ccc([C@H](N)C(N)=O)cc1 [L(+)-2-(4-methoxyphenyl)glycinamide]
effect on PDHa/PDHt ratio (predicted, 'will be') [1]: significantly increased
effect on pyruvate oxidation (predicted, 'will be found') [3]: stimulate pyruvate oxidation
